What is called EC50 is the concentration needed to bring the measured effect to its halfway point. A high value points to a less potent agent.

For 52 compounds, EC50 results are on record in US11033556B2, “Bicyclic sulfonamides” (priority 2019, dated 2021).

The experiment relates to genotype D HBV. The experiment is described as follows: HBV-DNA Antiviral Assay Using HepG2.117 Cells. As to conditions: Hepatitis B virus, HepG2.117, 96 h, intracellular HBV DNA by qPCR, day 4. It is filed as cell-based. The method, then:
The following assay procedure describes the HBV antiviral assay, using HepG2.117 cells, which carry a stably integrated genotype D HBV genome under the control of a Tet-off promoter, and intracellular HBV DNA quantification as endpoint. Cell viability is assessed in parallel by measuring the intracellular ATP content using ATPlite (Perkin Elmer).
On day 0, HepG2.117 cells (which are maintained in routine cell culture with doxycycline present in the medium at a final concentration of 1 μg/mL) were seeded in 96-well plates (white with clear bottom) at a density of 2.0×10^4 cells/well (0.1 mL/well) in medium without doxycycline to induce pgRNA transcription and subsequent formation of HBV particles. The cells were incubated at 37° C. and 5% CO2.
On day 1, medium was removed from each well, the test articles were diluted in culture medium without doxcycyline and 100 μL was added to cell culture wells (9 concentrations, 4-fold dilution). For each plate, 6 untreated (merely DMSO) wells were included. The final concentration of DMSO in the culture medium was 2%. Each plate was prepared in duplicate (one for HBV DNA extraction, one for ATPlite measurement). The cells were incubated at 37° C. and 5% CO2 for 3 days.
On day 4, cell viability was assessed using ATPlite and cell lysates were prepared for HBV DNA extraction and subsequent quantification by qPCR.
Medium was removed from each well and 100 μL of 0.33% NP-40 in H2O was added to each well. Plates were sealed, incubated at 4° C. for 5 mins, vortexed extensively and centrifuged briefly. Next, 35 μL of lysate was added to 65 μL QuickExtract DNA Extraction Solution (Epicentre) in a PCR plate for each well. PCR plate was incubated at 65° C. for 6 mins, 98° C. for 2 mins and finally cooled to 4° C. HBV DNA was then quantified by qPCR with HBV-specific primers and probes as specified in Table 4 using the Bio-Rad SSOAdvanced Universal Probes Supermix on a CFX96 machine (Bio-Rad). The PCR cycle program consisted of 95° C. for 3 mins, followed by 40 cycles at 95° C. for 10 sec and 60° C. for 30 sec.
A DNA standard was prepared by dilution of an IDT gBlock corresponding to the amplicon with concentrations ranging from 10^2 to 10^8 copies/input (i.e. per 4 μL) and used to generate a standard curve by plotting Cq values vs. HBV DNA standard concentration. The quantity of HBV DNA in each sample was determined by interpolating from the standard curve.
Cell viability was calculated as follows: % Cell viability=(luminescence value of test sample)/(average luminescence value of 2% DMSO control)×100%. HBV DNA inhibition was calculated as follows: 100−(HBV DNA copy number of test sample)/(average HBV DNA copy number of 2% DMSO control)×100%. No normalization to entecavir was required due to the excellent dynamic window of this assay. The CC50, EC50 and EC90 values were determined by dose-response curves fitted by GraphPad Prism using “log (agonist) vs. response—Variable slope”.
In general terms: Real-time PCR tracks product formation cycle by cycle.

`C=C[C@H]1CCc2c(cn(C)c2C(=O)Nc2ccc(F)c(C#N)c2)S(=O)(=O)N1` [Compound 8] returned a concentration giving a half-maximal response (EC50) of 1 to 10 nM. `C=C[C@@]1(CO)CCc2c(cn(C)c2C(=O)Nc2ccc(F)c(C(F)(F)F)c2)S(=O)(=O)N1` [Compound 9A] displayed an EC50 of 10 to 100 nM. Compound `C=C[C@]1(CO)CCc2c(cn(C)c2C(=O)Nc2ccc(F)c(C(F)(F)F)c2)S(=O)(=O)N1` [Compound 9B] had an EC50 of 10 to 100 nM.

Compound `C=C[C@@]1(CO)CCc2c(cn(C)c2C(=O)Nc2ccc(F)c(C#N)c2)S(=O)(=O)N1` [Compound 10A] showed an EC50 of 10 to 100 nM. For `C=C[C@]1(CO)CCc2c(cn(C)c2C(=O)Nc2ccc(F)c(C#N)c2)S(=O)(=O)N1` [Compound 10B], the EC50 lay within 10 to 100 nM. As for `C=C[C@](C)(O)[C@H]1CCc2c(cn(C)c2C(=O)Nc2ccc(F)c(C#N)c2)S(=O)(=O)N1` [Compound 11A], the EC50 was in the range of 1 to 10 nM. Compound `C=C[C@@](C)(O)[C@H]1CCc2c(cn(C)c2C(=O)Nc2ccc(F)c(C#N)c2)S(=O)(=O)N1` [Compound 11B] came in with an EC50 of 1 to 10 nM. In turn, `C#C[C@](C)(O)[C@H]1CCc2c(cn(C)c2C(=O)Nc2ccc(F)c(C#N)c2)S(=O)(=O)N1` [Compound 12A] had an EC50 of 10 to 100 nM. As to `C#C[C@@](C)(O)[C@H]1CCc2c(cn(C)c2C(=O)Nc2ccc(F)c(C#N)c2)S(=O)(=O)N1` [Compound 12B], the EC50 lay within 10 to 100 nM.

Take `Cn1cc2c(c1C(=O)Nc1ccc(F)c(C#N)c1)OC[C@H](CC=C(F)F)NS2(=O)=O` [Compound 13]: the EC50 was 1 to 10 nM. The result for `C=C[C@H](O)[C@H]1COc2c(cn(C)c2C(=O)Nc2ccc(F)c(C#N)c2)S(=O)(=O)N1` [Compound 14A] reads 1 to 10 nM. With `C=C[C@@H](O)[C@H]1COc2c(cn(C)c2C(=O)Nc2ccc(F)c(C#N)c2)S(=O)(=O)N1` [Compound 14B], the EC50 lay in the range of 1 to 10 nM. `C=C[C@]1(C)COc2c(cn(C)c2C(=O)Nc2ccc(F)c(C#N)c2)S(=O)(=O)N1` [Compound 15A] came in with an EC50 of 1 to 10 nM. Consider `C=C[C@@]1(C)COc2c(cn(C)c2C(=O)Nc2ccc(F)c(C#N)c2)S(=O)(=O)N1` [Compound 15B], for which the EC50 was 1 to 10 nM.

With `C=CC[C@]1(C)COc2c(cn(C)c2C(=O)Nc2ccc(F)c(C#N)c2)S(=O)(=O)N1` [Compound 16A], the EC50 lay in the range of 1 to 10 nM. Compound `C=CC[C@@]1(C)COc2c(cn(C)c2C(=O)Nc2ccc(F)c(C#N)c2)S(=O)(=O)N1` [Compound 16B] displayed an EC50 of 1 to 10 nM. In the case of `C=CC[C@H](O)[C@H]1COc2c(cn(C)c2C(=O)Nc2ccc(F)c(C#N)c2)S(=O)(=O)N1` [Compound 17A] it was 1 to 10 nM. For `C=CC[C@@H](O)[C@H]1COc2c(cn(C)c2C(=O)Nc2ccc(F)c(C#N)c2)S(=O)(=O)N1` [Compound 17B], the EC50 lay within 1 to 10 nM.

As for `C#C[C@H](O)[C@H]1COc2c(cn(C)c2C(=O)Nc2ccc(F)c(C#N)c2)S(=O)(=O)N1` [Compound 18], the EC50 was 1 to 10 nM.

Compound `CC#C[C@H](O)[C@H]1COc2c(cn(C)c2C(=O)Nc2ccc(F)c(C#N)c2)S(=O)(=O)N1` [Compound 19A] displayed an EC50 of 1 to 10 nM. As for `CC#C[C@@H](O)[C@H]1COc2c(cn(C)c2C(=O)Nc2ccc(F)c(C#N)c2)S(=O)(=O)N1` [Compound 19B], the EC50 was 1 to 10 nM. Compound `C=C[C@@](O)([C@H]1COc2c(cn(C)c2C(=O)Nc2ccc(F)c(C(F)(F)F)c2)S(=O)(=O)N1)C(F)(F)F` [Compound 20] registered an EC50 of 1 to 10 nM. Compound `C=C[C@](O)([C@@H]1COc2c(cn(C)c2C(=O)Nc2ccc(F)c(C#N)c2)S(=O)(=O)N1)C(F)(F)F` [Compound 21] returned an EC50 of 10 to 100 nM.

The compound `CC#C[C@H](O)[C@H]1COc2c(cn(C)c2C(=O)Nc2ccc(F)c(C(F)(F)F)c2)S(=O)(=O)N1` [Compound 22A] displayed an EC50 of 10 to 100 nM. In turn, `CC#C[C@@H](O)[C@H]1COc2c(cn(C)c2C(=O)Nc2ccc(F)c(C(F)(F)F)c2)S(=O)(=O)N1` [Compound 22B] displayed a concentration giving a half-maximal response (EC50) of 1 to 10 nM.

On to `C=C[C@@]1(C)COc2c(cn(C)c2C(=O)Nc2ccc(F)c(C(F)(F)F)c2)S(=O)(=O)N1` [Compound 23A], for which the half-maximal effective concentration (EC50) was in the range of 1 to 10 nM. Turning to `C=C[C@]1(C)COc2c(cn(C)c2C(=O)Nc2ccc(F)c(C(F)(F)F)c2)S(=O)(=O)N1` [Compound 23B], the EC50 lay within 1 to 10 nM. Compound `C=C[C@H]1COc2c(cn(C)c2C(=O)Nc2ccc(F)c(C(F)(F)F)c2)S(=O)(=O)N1` [Compound 24] returned a 50% effective concentration (EC50) of 1 to 10 nM.

Regarding `C=CC[C@@H](O)[C@@H]1COc2c(cn(C)c2C(=O)Nc2ccc(F)c(C#N)c2)S(=O)(=O)N1` [Compound 25A], the EC50 lay in the range of 10 to 100 nM. For `C=CC[C@H](O)[C@@H]1COc2c(cn(C)c2C(=O)Nc2ccc(F)c(C#N)c2)S(=O)(=O)N1` [Compound 25B], the EC50 was in the range of 10 to 100 nM.

Turning to `C=C[C@](O)([C@@H]1COc2c(cn(C)c2C(=O)Nc2ccc(F)c(C(F)(F)F)c2)S(=O)(=O)N1)C(F)(F)F` [Compound 26], the EC50 fell in the range of 10 to 100 nM. `C=C[C@@H](C)[C@H]1COc2c(cn(C)c2C(=O)Nc2ccc(F)c(C#N)c2)S(=O)(=O)N1` [Compound 27A] showed a half-maximal effective concentration (EC50) of 10 to 100 nM. In turn, `C=C[C@H](C)[C@@H]1COc2c(cn(C)c2C(=O)Nc2ccc(F)c(C#N)c2)S(=O)(=O)N1` [Compound 27B] registered an EC50 of 1 to 10 nM. The result for `C=C[C@H](C)[C@H]1COc2c(cn(C)c2C(=O)Nc2ccc(F)c(C#N)c2)S(=O)(=O)N1` [Compound 27C] reads 10 to 100 nM; that for `C=C[C@@H](C)[C@@H]1COc2c(cn(C)c2C(=O)Nc2ccc(F)c(C#N)c2)S(=O)(=O)N1` [Compound 27D], below 1 nM; that for `C=C[C@@](C)(O)[C@H]1COc2c(cn(C)c2C(=O)Nc2ccc(F)c(C#N)c2)S(=O)(=O)N1` [Compound 28A], 1 to 10 nM. In the case of `C=C[C@](C)(O)[C@H]1COc2c(cn(C)c2C(=O)Nc2ccc(F)c(C#N)c2)S(=O)(=O)N1` [Compound 28B] it was 1 to 10 nM; in that of `C=C[C@@](C)(O)[C@H]1COc2c(cn(C)c2C(=O)Nc2ccc(F)c(C(F)(F)F)c2)S(=O)(=O)N1` [Compound 29A], 10 to 100 nM; in that of `C=C[C@](C)(O)[C@H]1COc2c(cn(C)c2C(=O)Nc2ccc(F)c(C(F)(F)F)c2)S(=O)(=O)N1` [Compound 29B], 1 to 10 nM. Consider `C=C[C@@]1(CO)COc2c(cn(C)c2C(=O)Nc2ccc(F)c(C#N)c2)S(=O)(=O)N1` [Compound 30A], for which the EC50 was in the range of 1 to 10 nM.

Regarding `C=C[C@]1(CO)COc2c(cn(C)c2C(=O)Nc2ccc(F)c(C#N)c2)S(=O)(=O)N1` [Compound 30B], the half-maximal effective concentration (EC50) is 10 to 100 nM. As to `C=C[C@@]1(CO)COc2c(cn(C)c2C(=O)Nc2ccc(F)c(C(F)(F)F)c2)S(=O)(=O)N1` [Compound 31A], the EC50 was in the range of 1 to 10 nM.

Consider `C=C[C@]1(CO)COc2c(cn(C)c2C(=O)Nc2ccc(F)c(C(F)(F)F)c2)S(=O)(=O)N1` [Compound 31B], for which the EC50 is 1 to 10 nM.

With `C=C(C)[C@H]1COc2c(cn(C)c2C(=O)Nc2ccc(F)c(C#N)c2)S(=O)(=O)N1` [Compound 32], the EC50 lay in the range of 1 to 10 nM.

In turn, `C=C(C)[C@H]1COc2c(cn(C)c2C(=O)Nc2ccc(F)c(C(F)(F)F)c2)S(=O)(=O)N1` [Compound 33] registered an EC50 of 1 to 10 nM. For `C=CC(O)([C@H]1COc2c(cn(C)c2C(=O)Nc2ccc(F)c(C#N)c2)S(=O)(=O)N1)C(F)(F)F` (stereo partly shown) [Compound 34], the EC50 is below 1 nM.

In the case of `C#C[C@](C)(O)[C@H]1COc2c(cn(C)c2C(=O)Nc2ccc(F)c(C#N)c2)S(=O)(=O)N1` [Compound 35A], the 50% effective concentration (EC50) is 1 to 10 nM. The result for `C#C[C@@](C)(O)[C@H]1COc2c(cn(C)c2C(=O)Nc2ccc(F)c(C#N)c2)S(=O)(=O)N1` [Compound 35B] reads 1 to 10 nM; that for `C#C[C@](C)(O)[C@H]1COc2c(cn(C)c2C(=O)Nc2ccc(F)c(C(F)(F)F)c2)S(=O)(=O)N1` [Compound 36A], 10 to 100 nM; that for `C#C[C@@](C)(O)[C@H]1COc2c(cn(C)c2C(=O)Nc2ccc(F)c(C(F)(F)F)c2)S(=O)(=O)N1` [Compound 36B], 1 to 10 nM. `C#CC(O)([C@H]1COc2c(cn(C)c2C(=O)Nc2ccc(F)c(C#N)c2)S(=O)(=O)N1)C(F)(F)F` (stereo partly shown) [Compound 37]: the EC50 fell in the range of 10 to 100 nM. Take `C=C[C@@]1([C@H](C)O)COc2c(cn(C)c2C(=O)Nc2ccc(F)c(C#N)c2)S(=O)(=O)N1` [Compound 38A]: the EC50 lay in the range of 10 to 100 nM.
